Measured values as given in paper PMC5270475, “Structural Characterization and Ligand/Inhibitor Identification Provide Functional Insights into the Mycobacterium tuberculosis Cytochrome P450 CYP126A1” (The Journal of Biological Chemistry, 2016).

Target: T1, CYP126A1 (Mycobacterium tuberculosis, UniProt P9WPN9)
T1 construct: gene cyp126
Assay: UV-visible absorbance titration (heme Soret shift)
Type: binding

T1 sequence (P9WPN9 whole entry): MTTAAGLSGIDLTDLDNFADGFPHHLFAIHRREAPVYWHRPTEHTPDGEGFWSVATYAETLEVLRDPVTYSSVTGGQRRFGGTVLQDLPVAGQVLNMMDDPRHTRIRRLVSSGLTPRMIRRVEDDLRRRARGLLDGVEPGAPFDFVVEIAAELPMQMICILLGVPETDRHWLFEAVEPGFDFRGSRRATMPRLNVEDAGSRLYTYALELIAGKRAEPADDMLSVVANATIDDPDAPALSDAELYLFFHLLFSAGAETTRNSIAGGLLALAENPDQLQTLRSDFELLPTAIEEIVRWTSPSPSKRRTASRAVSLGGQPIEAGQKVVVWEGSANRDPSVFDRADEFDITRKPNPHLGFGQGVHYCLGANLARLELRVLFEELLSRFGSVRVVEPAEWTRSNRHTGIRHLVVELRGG

Row | Compound | Kd [µM]
1 | CC(=O)N1CCN(c2ccc(OC[C@H]3CO[C@](Cn4ccnc4)(c4ccc(Cl)cc4Cl)O3)cc2)CC1 (racemic) [Ketoconazole] | 0.34 ± 0.07
2 | Clc1ccc(COC(Cn2ccnc2)c2ccc(Cl)cc2Cl)cc1 (centres unmarked) [Econazole] | 4 ± 0.6
3 | Clc1ccc(COC(Cn2ccnc2)c2ccc(Cl)cc2Cl)c(Cl)c1 (centres unmarked) [Miconazole] | 1.3 ± 0.2
4 | Cn1c(-c2ccc(-c3nc4ccccc4[nH]3)cc2)nc2cc(N)ccc21 [compound 8, Compound 8] | 11 ± 0.6
5 | c1c[nH]cn1 [Imidazole] | 2590 ± 60
6 | O=C(NCCCn1ccnc1)NC12CC3CC(CC(C3)C1)C2 [compound 7, Compound 7] | 4.13 ± 0.61
7 | Clc1ccccc1C(c1ccccc1)(c1ccccc1)n1ccnc1 [Clotrimazole] | 3.9 ± 0.4
8 | O=C(O)C1CSC(c2cc3ccccc3nc2Cl)N1 (centres unmarked) [compound 9, Compound 9] | 16.4 ± 0.7
